Assay results: publication PMC5775429, “LY2087101 and dFBr share transmembrane binding sites in the (α4)3(β2)2 Nicotinic Acetylcholine Receptor” (Scientific Reports, 2018)
Values joined by “and” are separate entries in the source; they are usually repeats but may differ in a detail not shown here. Equal entries are not always repeated.

Assays:
Test in all cases: Two-electrode voltage-clamp of ACh-induced currents in Xenopus oocytes
Assay type in all cases: cell-based
(α4)3(β2)2 nAChR = molecular target: T1, (α4)3(β2)2 nAChR (Homo sapiens, UniProt P17787+P43681)
T1 construct: expressed in transfected cells; host or cells: Xenopus laevis oocytes injected with cRNA
Protocol: To begin to characterize LY2087101 interaction with the heteropentameric α4β2 nAChRs, we examined the selectivity of LY2087101 for the two α4β2 nAChR isoforms; high-agonist sensitivity (α4)2(β2)3 and low-agonist sensitivity (α4)3(β2)2 nAChRs. Xenopus oocytes were injected with α4 and β2 subunits RNAs at ratios 8:1 and 1:8 to favor expression of (α4)3(β2)2 and (α4)2(β2)3 nAChRs, respectively.
(§1) Ovarian lobules were surgically harvested from oocytes-positive female Xenopus laevis (NASCO, Fort Atkinson, WI) according to an animal use protocol approved by the Texas A&M Health Sciences Center Institutional Animals Care and Use Committee. The Texas A&M Health Sciences Center Research Facility is registered as an animal research facility with the United States Department of Agriculture and is fully accredited by the American Association for Accreditation of Laboratory Animal Care (AAALAC). For oocytes defolliculation, ovarian lobes were treated with 3 mg/ml collagenase type 2 (Worthington Biomedical, Lakewood, NJ) in Ca + 2-free buffer (85 mM NaCl, 2.5 mM KCl, 1 mM MgCl2, 5 mM HEPES, pH 7.6). Collagenase treatment was allowed to proceed for 3 hours at room temperature with gentle shaking then oocytes were washed several times with buffer to remove collagenase then with ND96-gentamicine buffer. Healthy Stage V and VI oocytes were visually selected and maintained at 18 °C in modified ND96-gentamicine buffer (96 mM NaCl, 2 mM KCl, 1.8 mM CaCl2, 1 mM MgCl2, 5 mM HEPES, 50 µg/ml gentamicin, pH 7.6). Oocytes were injected with 50–100 ng of the desired nAChR subunits cRNA mix at ratios of 8α:1β or 1α:8β to express nAChRs with subunit stoichiometries of 3α:2β (low agonist sensitivity) or 2α:3β (high agonist sensitivity), respectively.
(§2) Oocytes were continuously perfused with recording buffer (100 mM NaCl, 2 mM KCl, 1 mM CaCl2, 0.8 mM MgCl2, 1 mM EGTA, 10 mM Hepes, pH 7.5) except during periods of drug applications.

(α4C259F)3(β2)2 nAChR = (α4C259F)3(β2)2 nAChR (Homo sapiens, UniProt P43681, C259F); conditions: 10 µM ACh + 1 µM PAM vs 10 µM ACh alone
Protocol: (§3) For amino acid substitutions within the α4 nAChR subunit, point mutations were introduced into pSP64ployA plasmid with cDNA encoding for human α4 nAChR subunit with mutagenic primer pairs using the Quick Change II Site-Directed Mutagenesis Kit (Agilent Technologies) then confirmed by DNA sequencing (GENEWIZ, LLC, South Plainfield, NJ). cRNA transcripts suitable for oocyte expression were prepared in vitro from linearized plasmids [α3 (BamH1), α4 (AseI), β2 (PvuII), β4 (XhoI)] using mMESSAGE mMACHINE high yield capped RNA transcription kits (Ambion) and purified on NucAway Spin column (Invitrogen). cRNA concentration was determined by spectroscopy (Concentration (ug/ul) = Abs260 * 40), aliquoted and stored at −80 °C until used.
as §1, §2

(α4C259V)3(β2)2 nAChR = (α4C259V)3(β2)2 nAChR (Homo sapiens, UniProt P43681, C259V); conditions: 10 µM ACh + 1 µM PAM vs 10 µM ACh alone
Protocol: as §3, §1, §2

(α4F316L)3(β2)2 nAChR = (α4F316L)3(β2)2 nAChR (Homo sapiens, UniProt P43681, F316L)
Protocol: as §3, §1, §2

(α4G613L)3(β2)2 nAChR = (α4G613L)3(β2)2 nAChR (Homo sapiens, UniProt P43681, G613L)
Protocol: as §3, §1, §2

(α4H332Y)3(β2)2 nAChR = molecular target: T2, (α4H332Y)3(β2)2 nAChR (Homo sapiens, UniProt P17787+P43681, H332Y)
T2 construct: expressed in transfected cells; host or cells: Xenopus laevis oocytes injected with cRNA
Protocol: as §3, §1, §2

(α4I275V)3(β2)2 nAChR = molecular target: T3, (α4I275V)3(β2)2 nAChR (Homo sapiens, UniProt P17787+P43681, I275V)
T3 construct: expressed in transfected cells; host or cells: Xenopus laevis oocytes injected with cRNA
Protocol: as §3, §1, §2

(α4I315A)3(β2)2 nAChR = molecular target: T4, (α4I315A)3(β2)2 nAChR (Homo sapiens, UniProt P17787+P43681, I315A)
T4 construct: expressed in transfected cells; host or cells: Xenopus laevis oocytes injected with cRNA
Protocol: as §3, §1, §2

(α4I607T)3(β2)2 nAChR = molecular target: T5, (α4I607T)3(β2)2 nAChR (Homo sapiens, UniProt P17787+P43681, I607T)
T5 construct: expressed in transfected cells; host or cells: Xenopus laevis oocytes injected with cRNA
Protocol: as §3, §1, §2

(α4L256F)3(β2)2 nAChR = (α4L256F)3(β2)2 nAChR (Homo sapiens, UniProt P43681, L256F)
Protocol: as §3, §1, §2

(α4L260M)3(β2)2 nAChR = molecular target: T6, (α4L260M)3(β2)2 nAChR (Homo sapiens, UniProt P17787+P43681, L260M)
T6 construct: expressed in transfected cells; host or cells: Xenopus laevis oocytes injected with cRNA
Protocol: as §3, §1, §2

(α4L291V)3(β2)2 nAChR = molecular target: T7, (α4L291V)3(β2)2 nAChR (Homo sapiens, UniProt P17787+P43681, L291V)
T7 construct: expressed in transfected cells; host or cells: Xenopus laevis oocytes injected with cRNA
Protocol: as §3, §1, §2

(α4L311V)3(β2)2 nAChR = (α4L311V)3(β2)2 nAChR (Homo sapiens, UniProt P43681, L311V); conditions: 10 µM ACh + 1 µM PAM vs 10 µM ACh alone
Protocol: as §3, §1, §2

(α4V609A)3(β2)2 nAChR = molecular target: T8, (α4V609A)3(β2)2 nAChR (Homo sapiens, UniProt P17787+P43681, V609A)
T8 construct: expressed in transfected cells; host or cells: Xenopus laevis oocytes injected with cRNA
Protocol: as §3, §1, §2

α4β2 nAChR = molecular target: T9, α4β2 nAChR (Homo sapiens, UniProt P17787+P43681); conditions: 1 μM PAM
T9 construct: expressed in transfected cells; host or cells: Xenopus laevis oocytes injected with cRNA
Protocol: (§4) Next, Xenopus oocytes were injected with RNA mixes of […], α3:β4, […], or α4:β4 at ratios of 8:1, 1:1, or 1:8 to express nAChRs with different subunit composition and with various α:β ratios.
as §1, §2

α4β4 nAChR = molecular target: T10, α4β4 nAChR (Homo sapiens, UniProt P30926+P43681); conditions: 1 μM PAM
T10 construct: expressed in transfected cells; host or cells: Xenopus laevis oocytes injected with cRNA
Protocol: as §4, §1, §2

[1] = ACh concentration-response curve, normalized to 1 mM ACh alone
[2] = 10 µM ACh + 1 µM PAM vs 10 µM ACh alone
[3] = normalized to peak current by 10 µM ACh alone, curve fit
[4] = read-out: LY2087101 potentiation EC50

T4 sequence (P43681 29-627 I315A limits assumed): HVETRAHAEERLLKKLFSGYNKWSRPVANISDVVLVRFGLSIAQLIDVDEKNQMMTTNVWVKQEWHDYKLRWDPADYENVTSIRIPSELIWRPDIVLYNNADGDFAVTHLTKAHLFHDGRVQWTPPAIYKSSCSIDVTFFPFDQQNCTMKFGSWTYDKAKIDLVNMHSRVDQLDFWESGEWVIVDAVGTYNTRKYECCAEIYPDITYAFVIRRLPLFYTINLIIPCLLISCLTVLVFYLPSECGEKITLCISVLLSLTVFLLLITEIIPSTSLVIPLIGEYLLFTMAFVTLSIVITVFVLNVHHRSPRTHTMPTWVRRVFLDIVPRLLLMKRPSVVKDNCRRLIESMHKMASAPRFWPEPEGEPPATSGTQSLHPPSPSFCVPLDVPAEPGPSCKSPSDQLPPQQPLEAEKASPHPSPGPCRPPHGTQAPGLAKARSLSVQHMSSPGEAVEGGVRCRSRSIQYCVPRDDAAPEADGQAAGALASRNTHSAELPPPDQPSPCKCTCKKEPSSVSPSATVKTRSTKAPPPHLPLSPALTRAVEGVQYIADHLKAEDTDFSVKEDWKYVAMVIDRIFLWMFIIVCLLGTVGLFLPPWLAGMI
T4 sequence (P17787 26-502): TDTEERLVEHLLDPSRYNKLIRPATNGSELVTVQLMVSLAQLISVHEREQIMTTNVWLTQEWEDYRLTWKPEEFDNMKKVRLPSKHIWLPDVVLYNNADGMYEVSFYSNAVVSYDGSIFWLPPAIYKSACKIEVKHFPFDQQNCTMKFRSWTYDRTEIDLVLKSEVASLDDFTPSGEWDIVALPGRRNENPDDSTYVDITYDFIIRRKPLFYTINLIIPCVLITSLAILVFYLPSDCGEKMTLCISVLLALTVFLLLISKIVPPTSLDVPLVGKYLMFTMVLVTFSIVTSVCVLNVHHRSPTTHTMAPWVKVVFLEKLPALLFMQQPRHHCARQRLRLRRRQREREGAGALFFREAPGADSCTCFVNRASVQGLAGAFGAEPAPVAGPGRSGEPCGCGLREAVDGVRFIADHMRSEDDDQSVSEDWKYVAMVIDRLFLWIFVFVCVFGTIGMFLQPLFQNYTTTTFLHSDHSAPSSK
T6 sequence (P43681 29-627 L260M limits assumed): as the sequence (P43681 29-627 I315A limits assumed) above, with L232M, A287I counted along it
T6 sequence (P17787 26-502): as the sequence (P17787 26-502) above
T7 sequence (P43681 29-627 L291V limits assumed): as the sequence (P43681 29-627 I315A limits assumed) above, with L263V, A287I counted along it
T7 sequence (P17787 26-502): as the sequence (P17787 26-502) above
T2 sequence (P43681 29-627 H332Y limits assumed): as the sequence (P43681 29-627 I315A limits assumed) above, with A287I, H304Y counted along it
T2 sequence (P17787 26-502): as the sequence (P17787 26-502) above
T5 sequence (P43681 29-627 I607T limits assumed): as the sequence (P43681 29-627 I315A limits assumed) above, with A287I, I579T counted along it
T5 sequence (P17787 26-502): as the sequence (P17787 26-502) above
T1 sequence (P43681 29-627 limits assumed): as the sequence (P43681 29-627 I315A limits assumed) above, with A287I counted along it
T1 sequence (P17787 26-502): as the sequence (P17787 26-502) above
T3 sequence (P43681 29-627 I275V limits assumed): as the sequence (P43681 29-627 I315A limits assumed) above, with I247V, A287I counted along it
T3 sequence (P17787 26-502): as the sequence (P17787 26-502) above
T8 sequence (P43681 29-627 V609A limits assumed): as the sequence (P43681 29-627 I315A limits assumed) above, with A287I, V581A counted along it
T8 sequence (P17787 26-502): as the sequence (P17787 26-502) above
Chain of (α4L256F)3(β2)2 nAChR (P43681 29-627 L256F limits assumed): as the sequence (P43681 29-627 I315A limits assumed) above, with L228F, A287I counted along it
Chain of (α4L256F)3(β2)2 nAChR (P17787 26-502 partner): as the sequence (P17787 26-502) above
Chain of (α4F316L)3(β2)2 nAChR (P43681 29-627 F316L limits assumed): as the sequence (P43681 29-627 I315A limits assumed) above, with A287I, F288L counted along it
Chain of (α4F316L)3(β2)2 nAChR (P17787 26-502 partner): as the sequence (P17787 26-502) above
Chain of (α4G613L)3(β2)2 nAChR (P43681 29-627 G613L limits assumed): as the sequence (P43681 29-627 I315A limits assumed) above, with A287I, G585L counted along it
Chain of (α4G613L)3(β2)2 nAChR (P17787 26-502 partner): as the sequence (P17787 26-502) above
Chain of (α4C259F)3(β2)2 nAChR (P43681 29-627 C259F limits assumed): as the sequence (P43681 29-627 I315A limits assumed) above, with C231F, A287I counted along it
Chain of (α4C259F)3(β2)2 nAChR (P17787 26-502 partner): as the sequence (P17787 26-502) above
Chain of (α4C259V)3(β2)2 nAChR (P43681 29-627 C259V limits assumed): as the sequence (P43681 29-627 I315A limits assumed) above, with C231V, A287I counted along it
Chain of (α4C259V)3(β2)2 nAChR (P17787 26-502 partner): as the sequence (P17787 26-502) above
T10 sequence (P43681 29-627 limits assumed): as the sequence (P43681 29-627 I315A limits assumed) above, with A287I counted along it
T10 sequence (P30926 22-498): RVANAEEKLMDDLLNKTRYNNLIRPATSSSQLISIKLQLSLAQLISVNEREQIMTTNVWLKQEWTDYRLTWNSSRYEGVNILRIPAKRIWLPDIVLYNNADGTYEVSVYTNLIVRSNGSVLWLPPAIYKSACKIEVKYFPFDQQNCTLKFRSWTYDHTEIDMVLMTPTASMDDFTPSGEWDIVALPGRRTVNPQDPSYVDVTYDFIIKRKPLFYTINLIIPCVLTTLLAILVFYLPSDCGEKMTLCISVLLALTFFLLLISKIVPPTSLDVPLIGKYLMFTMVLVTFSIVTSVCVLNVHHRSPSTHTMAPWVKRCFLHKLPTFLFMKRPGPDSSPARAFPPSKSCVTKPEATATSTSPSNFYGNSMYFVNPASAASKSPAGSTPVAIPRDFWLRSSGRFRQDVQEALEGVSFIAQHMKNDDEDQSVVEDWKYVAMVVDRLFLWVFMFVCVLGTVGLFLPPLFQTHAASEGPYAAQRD
T9 sequence (P43681 29-627 limits assumed): as the sequence (P43681 29-627 I315A limits assumed) above, with A287I counted along it
T9 sequence (P17787 26-502): as the sequence (P17787 26-502) above
Chain of (α4L311V)3(β2)2 nAChR (P43681 29-627 L311V limits assumed): as the sequence (P43681 29-627 I315A limits assumed) above, with L283V, A287I counted along it
Chain of (α4L311V)3(β2)2 nAChR (P17787 26-502 partner): as the sequence (P17787 26-502) above

Cc1nc(Nc2ccc(F)cc2)sc1C(=O)c1ccsc1 [LY2087101, [2-[(4-Fluorophenyl)amino]-4-methyl-5-thiazolyl]-3-thienylmethanone]
R, potentiation ratio (PR) ((α4)3(β2)2 nAChR; 10 µM ACh + 1 µM PAM vs 10 µM ACh alone, WT): 4.1 ± 0.3 | ACh Imax in the presence of 1 µM LY2087101 ((α4)3(β2)2 nAChR; [1]): 251 ± 19% and ~ 250% | EC50 ((α4)3(β2)2 nAChR; co-applied with 10 µM ACh, LS WT, read-out: LY2087101 potentiation EC50): 1400 nM and 1000 to 2000 nM | R, potentiation ratio (PR) ((α4C259F)3(β2)2 nAChR): 3.2 ± 0.4 | R, potentiation ratio (PR) ((α4C259V)3(β2)2 nAChR): 5.2 ± 0.6 | R, potentiation ratio (PR) ((α4F316L)3(β2)2 nAChR; [2]): 1.1 ± 0.1 | ACh Imax in the presence of 1 µM LY2087101 ((α4F316L)3(β2)2 nAChR; [1]): 122 ± 13% | R, potentiation ratio (PR) ((α4G613L)3(β2)2 nAChR; [2]): 1.09 ± 0.1 | ACh Imax in the presence of 1 µM LY2087101 ((α4G613L)3(β2)2 nAChR; [1]): 112 ± 9% | R, potentiation ratio (PR) ((α4H332Y)3(β2)2 nAChR; [2]): 4.2 ± 0.5 | LY2087101 potentiation Imax% ((α4H332Y)3(β2)2 nAChR; [3]): 573 ± 20% | EC50 ((α4H332Y)3(β2)2 nAChR; [4]): 1300 ± 100 nM | R, potentiation ratio (PR) ((α4I275V)3(β2)2 nAChR; [2]): 3.7 ± 0.5 | EC50 ((α4I275V)3(β2)2 nAChR; [4]): 1700 ± 200 nM | R, potentiation ratio (PR) ((α4I315A)3(β2)2 nAChR; [2]): 2.5 ± 0.2 | LY2087101 potentiation Imax% ((α4I315A)3(β2)2 nAChR; [3]): 405 ± 5% | EC50 ((α4I315A)3(β2)2 nAChR; [4]): 1200 ± 500 nM | R, potentiation ratio (PR) ((α4I607T)3(β2)2 nAChR; [2]): 5.8 ± 0.7 | LY2087101 potentiation Imax% ((α4I607T)3(β2)2 nAChR; [3]): 958 ± 32% | EC50 ((α4I607T)3(β2)2 nAChR; [4]): 800 ± 100 nM | R, potentiation ratio (PR) ((α4L256F)3(β2)2 nAChR; [2]): 1.0 ± 0.1 | ACh Imax in the presence of 1 µM LY2087101 ((α4L256F)3(β2)2 nAChR; [1]): 104 ± 09% | R, potentiation ratio (PR) ((α4L260M)3(β2)2 nAChR; [2]): 1.6 ± 0.2 | ACh Imax in the presence of 1 µM LY2087101 ((α4L260M)3(β2)2 nAChR; [1]): 264 ± 80% | LY2087101 potentiation Imax% ((α4L260M)3(β2)2 nAChR; [3]): 269 ± 21% | EC50 ((α4L260M)3(β2)2 nAChR; [4]): 2500 ± 600 nM | R, potentiation ratio (PR) ((α4L291V)3(β2)2 nAChR; [2]): 3.7 ± 0.6 | LY2087101 potentiation Imax% ((α4L291V)3(β2)2 nAChR; [3]): 719 ± 20% | EC50 ((α4L291V)3(β2)2 nAChR; [4]): 1600 ± 100 nM | R, potentiation ratio (PR) ((α4L311V)3(β2)2 nAChR): 15.6 ± 3.2 | R, potentiation ratio (PR) ((α4V609A)3(β2)2 nAChR; [2]): 5.7 ± 1.1 | EC50 ((α4V609A)3(β2)2 nAChR; [4]): 1000 ± 300 nM | potentiation of ACh responses (α4β2 nAChR): potentiated | potentiation of ACh responses (α4β4 nAChR): potentiated
